Activity calls are given as the source filed them. No rule for the calls is given here.
Test system: CCRIS mutagenicity, Ames/micronucleus/aberration tests
Experiment: CCRIS mutagenicity studies

F
mutagenic call (End Point: IN VIVO MICRONUCLEUS, Test System: BONE MARROW POLYCHROMATIC ERYTHROCYTES, Species: MOUSE, Strain/Sex: DDY/MALE, Route: IP): inactive; negative
mutagenic call (Test System: AMES SALMONELLA TYPHIMURIUM, Strain/Indicator: TA97A, Metabolic Activation: NONE, Method: STANDARD PLATE): inactive; negative
mutagenic call (Test System: AMES SALMONELLA TYPHIMURIUM, Strain/Indicator: TA97A, Metabolic Activation: RAT, LIVER, S-9, AROCLOR 1254, Method: STANDARD PLATE): inactive; negative
mutagenic call (Test System: AMES SALMONELLA TYPHIMURIUM, Strain/Indicator: TA98, Metabolic Activation: HAMSTER, LIVER, S-9, AROCLOR 1254 (10%), Method: PREINCUBATION): inactive; negative
mutagenic call (Test System: AMES SALMONELLA TYPHIMURIUM, Strain/Indicator: TA98, Metabolic Activation: NONE, Method: FLUCTUATION TEST): inactive; negative
mutagenic call (Test System: AMES SALMONELLA TYPHIMURIUM, Strain/Indicator: TA98, Metabolic Activation: NONE, Method: PREINCUBATION): inactive; negative
mutagenic call (Test System: AMES SALMONELLA TYPHIMURIUM, Strain/Indicator: TA98, Metabolic Activation: NONE, Method: STANDARD PLATE): inactive; negative
mutagenic call (Test System: AMES SALMONELLA TYPHIMURIUM, Strain/Indicator: TA98, Metabolic Activation: RAT, LIVER, S-9, AROCLOR 1254 (10%), Method: PREINCUBATION): inactive; negative
mutagenic call (Test System: AMES SALMONELLA TYPHIMURIUM, Strain/Indicator: TA98, Metabolic Activation: RAT, LIVER, S-9, AROCLOR 1254, Method: STANDARD PLATE): inactive; negative
mutagenic call (Test System: AMES SALMONELLA TYPHIMURIUM, Strain/Indicator: TA98, Metabolic Activation: RAT, LIVER, S-9, AROCLOR, Method: PREINCUBATION): inactive; negative
mutagenic call (Test System: AMES SALMONELLA TYPHIMURIUM, Strain/Indicator: TA98, Metabolic Activation: RAT, LIVER, S-9, PCB, Method: FLUCTUATION TEST): inactive; negative
mutagenic call (Test System: AMES SALMONELLA TYPHIMURIUM, Strain/Indicator: TA98, Metabolic Activation: RAT, LIVER, S-9, PCB, Method: STANDARD PLATE): inactive; negative
mutagenic call (Test System: AMES SALMONELLA TYPHIMURIUM, Strain/Indicator: TA98, Metabolic Activation: RAT, LIVER, S-9, PHENOBARBITAL, Method: STANDARD PLATE): inactive; negative
mutagenic call (Test System: AMES SALMONELLA TYPHIMURIUM, Strain/Indicator: TA100, Metabolic Activation: HAMSTER, LIVER, S-9, AROCLOR 1254 (10%), Method: PREINCUBATION): inactive; negative
mutagenic call (Test System: AMES SALMONELLA TYPHIMURIUM, Strain/Indicator: TA100, Metabolic Activation: NONE, Method: FLUCTUATION TEST): inactive; negative
mutagenic call (Test System: AMES SALMONELLA TYPHIMURIUM, Strain/Indicator: TA100, Metabolic Activation: NONE, Method: PREINCUBATION): inactive; negative
mutagenic call (Test System: AMES SALMONELLA TYPHIMURIUM, Strain/Indicator: TA100, Metabolic Activation: NONE, Method: STANDARD PLATE): inactive; negative
mutagenic call (Test System: AMES SALMONELLA TYPHIMURIUM, Strain/Indicator: TA100, Metabolic Activation: RAT, LIVER, S-9, AROCLOR 1254 (10%), Method: PREINCUBATION): inactive; negative
mutagenic call (Test System: AMES SALMONELLA TYPHIMURIUM, Strain/Indicator: TA100, Metabolic Activation: RAT, LIVER, S-9, AROCLOR 1254, Method: STANDARD PLATE): inactive; negative
mutagenic call (Test System: AMES SALMONELLA TYPHIMURIUM, Strain/Indicator: TA100, Metabolic Activation: RAT, LIVER, S-9, AROCLOR, Method: PREINCUBATION): inactive; negative
mutagenic call (Test System: AMES SALMONELLA TYPHIMURIUM, Strain/Indicator: TA100, Metabolic Activation: RAT, LIVER, S-9, PCB, Method: FLUCTUATION TEST): inactive; negative
mutagenic call (Test System: AMES SALMONELLA TYPHIMURIUM, Strain/Indicator: TA100, Metabolic Activation: RAT, LIVER, S-9, PCB, Method: STANDARD PLATE): inactive; negative
mutagenic call (Test System: AMES SALMONELLA TYPHIMURIUM, Strain/Indicator: TA100, Metabolic Activation: RAT, LIVER, S-9, PHENOBARBITAL, Method: STANDARD PLATE): inactive; negative
mutagenic call (Test System: AMES SALMONELLA TYPHIMURIUM, Strain/Indicator: TA102, Metabolic Activation: NONE, Method: STANDARD PLATE): inactive; negative
mutagenic call (Test System: AMES SALMONELLA TYPHIMURIUM, Strain/Indicator: TA102, Metabolic Activation: RAT, LIVER, S-9, AROCLOR 1254, Method: STANDARD PLATE): inactive; negative
mutagenic call (Test System: AMES SALMONELLA TYPHIMURIUM, Strain/Indicator: TA1535, Metabolic Activation: HAMSTER, LIVER, S-9, AROCLOR 1254 (10%), Method: PREINCUBATION): inactive; negative
mutagenic call (Test System: AMES SALMONELLA TYPHIMURIUM, Strain/Indicator: TA1535, Metabolic Activation: NONE, Method: PREINCUBATION): inactive; negative
mutagenic call (Test System: AMES SALMONELLA TYPHIMURIUM, Strain/Indicator: TA1535, Metabolic Activation: NONE, Method: STANDARD PLATE): inactive; negative
mutagenic call (Test System: AMES SALMONELLA TYPHIMURIUM, Strain/Indicator: TA1535, Metabolic Activation: RAT, LIVER, S-9, AROCLOR 1254 (10%), Method: PREINCUBATION): inactive; negative
mutagenic call (Test System: AMES SALMONELLA TYPHIMURIUM, Strain/Indicator: TA1535, Metabolic Activation: RAT, LIVER, S-9, AROCLOR 1254, Method: STANDARD PLATE): inactive; negative
mutagenic call (Test System: AMES SALMONELLA TYPHIMURIUM, Strain/Indicator: TA1535, Metabolic Activation: RAT, LIVER, S-9, AROCLOR, Method: PREINCUBATION): inactive; negative
mutagenic call (Test System: AMES SALMONELLA TYPHIMURIUM, Strain/Indicator: TA1537, Metabolic Activation: HAMSTER, LIVER, S-9, AROCLOR 1254 (10%), Method: PREINCUBATION): inactive; negative
mutagenic call (Test System: AMES SALMONELLA TYPHIMURIUM, Strain/Indicator: TA1537, Metabolic Activation: NONE, Method: PREINCUBATION): inactive; negative
mutagenic call (Test System: AMES SALMONELLA TYPHIMURIUM, Strain/Indicator: TA1537, Metabolic Activation: RAT, LIVER, S-9, AROCLOR 1254 (10%), Method: PREINCUBATION): inactive; negative
mutagenic call (Test System: AMES SALMONELLA TYPHIMURIUM, Strain/Indicator: TA1537, Metabolic Activation: RAT, LIVER, S-9, AROCLOR, Method: PREINCUBATION): inactive; negative
mutagenic call (Test System: AMES SALMONELLA TYPHIMURIUM, Strain/Indicator: TA1538, Metabolic Activation: NONE, Method: PREINCUBATION): inactive; negative
mutagenic call (Test System: AMES SALMONELLA TYPHIMURIUM, Strain/Indicator: TA1538, Metabolic Activation: RAT, LIVER, S-9, AROCLOR, Method: PREINCUBATION): inactive; negative
mutagenic call (Test System: CHINESE HAMSTER OVARY, Strain/Indicator: CHO-K1-BH4 (HGPRT), Metabolic Activation: NONE, Method: SUSPENSION/PLATE): inactive; negative
mutagenic call (Test System: CHINESE HAMSTER OVARY, Strain/Indicator: CHO-K1-BH4 (HGPRT), Metabolic Activation: RAT, LIVER, S-9, AROCLOR, Method: SUSPENSION/PLATE): inactive; negative
mutagenic call (Test System: CHINESE HAMSTER V-79, Strain/Indicator: V-79 (HGPRT)/6-THIOGUANINE, Metabolic Activation: NONE): inactive; negative
mutagenic call (Test System: CHINESE HAMSTER V-79, Strain/Indicator: V-79/6-THIOGUANINE, Metabolic Activation: NONE): inactive; negative
mutagenic call (Test System: E.COLI, Strain/Indicator: WP2 UVRA, Metabolic Activation: NONE, Method: FLUCTUATION TEST): inactive; negative
mutagenic call (Test System: E.COLI, Strain/Indicator: WP2 UVRA, Metabolic Activation: RAT, LIVER, S-9, PCB, Method: FLUCTUATION TEST): inactive; negative
mutagenic call (Test System: MOUSE LYMPHOMA, Strain/Indicator: L5178Y (TK+/TK-), Metabolic Activation: NONE, Method: SUSPENSION/PLATE): active; positive
mutagenic call (Test System: MOUSE LYMPHOMA, Strain/Indicator: L5178Y (TK+/TK-), Metabolic Activation: RAT, LIVER, S-9, AROCLOR 1254, Method: SUSPENSION/PLATE): active; positive

CCCC(=O)OC1CCCCC1
mutagenic call (Test System: AMES SALMONELLA TYPHIMURIUM, Strain/Indicator: TA97, Metabolic Activation: NONE, Method: PREINCUBATION): inactive; negative
mutagenic call (Test System: AMES SALMONELLA TYPHIMURIUM, Strain/Indicator: TA97, Metabolic Activation: RAT, LIVER, S-9, AROCLOR 1254, Method: PREINCUBATION): inactive; negative
mutagenic call (Test System: AMES SALMONELLA TYPHIMURIUM, Strain/Indicator: TA102, Metabolic Activation: NONE, Method: PREINCUBATION): inactive; negative
mutagenic call (Test System: AMES SALMONELLA TYPHIMURIUM, Strain/Indicator: TA102, Metabolic Activation: RAT, LIVER, S-9, AROCLOR 1254, Method: PREINCUBATION): inactive; negative

— PubChem BioAssay AID1259407 (Chemical Carcinogenesis Research Information System (CCRIS), 2018)
